Laboratory results as given in patent US9695155B2, “Herbicidal substituted pyrimidinyloxy benzene compounds” (E. I. DU PONT DE NEMOURS AND COMPANY, priority 2013, dated 2017).

Tests used:
[1] = test system: barnyardgrass; assay: Test A preemergence; assay type: in vivo, Echinochloa crus-galli; conditions: Echinochloa crus-galli, pre-emergence, 240 h, 0 to 100 scale where 0 is no effect and 100 is complete control
Procedure, shortened: (§1)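 Visual injury scored 0–100 (100 = complete control) against untreated controls about 10 days after treatment in a greenhouse. Test chemicals, formulated with surfactant in non-phytotoxic solvent, were sprayed on soil preemergence or on 2-10 cm, one- to two-leaf plants postemergence.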

[2] = test system: giant foxtail; assay: Test A preemergence; assay type: in vivo, Setaria faberii; conditions: Setaria faberi, pre-emergence, 240 h, 0 to 100 scale where 0 is no effect and 100 is complete control
Procedure, shortened: as §1

[3] = test system: blackgrass; assay: Test C preemergence; assay type: in vivo, Alopecurus myosuroides; conditions: Alopecurus myosuroides, pre-emergence
Procedure, shortened: (§2)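 Greenhouse herbicide screen. Pre: seeded loam/sand, sprayed at planting. Post: 1–4 leaf plants (2–18 cm) in peat-based mix. Formulation: solvent mixture + surfactant, non-phytotoxic. Readout: visual % control vs untreated, 13–15 d; dash = not tested.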

[4] = test system: corn; assay: Test C preemergence; assay type: in vivo, Zea mays; conditions: Zea mays, pre-emergence
Procedure, shortened: as §2

[5] = test system: morningglory; assay: Test C preemergence; assay type: in vivo, Ipomoea coccinea; conditions: Ipomoea, pre-emergence
Procedure, shortened: as §2

[6] = test system: ragweed; assay: Test C preemergence; assay type: in vivo, Ambrosia elatior; conditions: Ambrosia artemisiifolia, pre-emergence
Procedure, shortened: as §2

[7] = test system: soybean; assay: Test C preemergence; assay type: in vivo, Glycine max; conditions: Glycine max, pre-emergence
Procedure, shortened: as §2

[8] = test system: barnyardgrass; assay: Test C preemergence; assay type: in vivo, Echinochloa crus-galli; conditions: Echinochloa crus-galli, pre-emergence
Procedure, shortened: as §2

[9] = test system: oilseed rape; assay: Test C preemergence; assay type: in vivo, Brassica napus; conditions: Brassica napus, pre-emergence
Procedure, shortened: as §2

[10] = test system: waterhemp; assay: Test C preemergence; assay type: in vivo, Amaranthus rudis; conditions: Amaranthus tuberculatus, pre-emergence
Procedure, shortened: as §2

[11] = test system: blackgrass; assay: Test C postemergence; assay type: in vivo, Alopecurus myosuroides; conditions: Alopecurus myosuroides, post-emergence
Procedure, shortened: as §2

[12] = test system: Italian ryegrass; assay: Test C postemergence; assay type: in vivo, Lolium multiflorum; conditions: Lolium multiflorum, post-emergence
Procedure, shortened: as §2

[13] = test system: corn; assay: Test C postemergence; assay type: in vivo, Zea mays; conditions: Zea mays, post-emergence
Procedure, shortened: as §2

[14] = test system: lambsquarters; assay: Test C postemergence; assay type: in vivo, Chenopodium album; conditions: Chenopodium album, post-emergence
Procedure, shortened: as §2

[15] = test system: pigweed; assay: Test C postemergence; assay type: in vivo, Amaranthus retroflexus; conditions: Amaranthus retroflexus, post-emergence
Procedure, shortened: as §2

[16] = test system: barnyardgrass; assay: Test C postemergence; assay type: in vivo, Echinochloa crus-galli; conditions: Echinochloa crus-galli, post-emergence
Procedure, shortened: as §2

[17] = test system: waterhemp; assay: Test C postemergence; assay type: in vivo, Amaranthus rudis; conditions: Amaranthus tuberculatus, post-emergence
Procedure, shortened: as §2

FC(F)(F)Sc1cnn(-c2ccccc2Oc2ncc(Cl)cn2)c1 [Compound 132, 5-chloro-2-[2-[4-(trifluoromethylthio)-1H-pyrazol-1-yl]phenoxy]pyrimidine]
pest or weed control at 125 g/ha ([1]; 125 g ai/ha, read-out: Plant response rating, Barnyardgrass): 50%
pest or weed control at 500 g/ha ([1]; 500 g ai/ha, read-out: Barnyardgrass plant response rating): 100%
pest or weed control at 125 g/ha ([2]; 125 g ai/ha, read-out: Plant response rating, Foxtail, Giant): 90%
pest or weed control at 500 g/ha ([2]; 500 g ai/ha, read-out: Foxtail, Giant plant response rating): 100%
pest or weed control at 16 g/ha ([3]; 16 g ai/ha, preemergence, scale 0 to 100 (0 no effect, 100 complete control), read-out: Blackgrass plant response rating): 0%
pest or weed control at 62 g/ha ([3]; 62 g ai/ha, preemergence, scale 0 (no effect) to 100 (complete control), read-out: Blackgrass plant response rating): 40%
pest or weed control at 125 g/ha ([3]; 125 g ai/ha, preemergence, scale 0 (no effect) to 100 (complete control), read-out: Blackgrass plant response rating): 95%
pest or weed control at 31 g/ha ([3]; Preemergence, 31 g ai/ha, scale 0 to 100, 0 no effect, 100 complete control, read-out: Plant response rating, Blackgrass): 5%
plant injury at 16 g/ha ([4]; 16 g ai/ha, preemergence, scale 0 to 100 (0 no effect, 100 complete control), read-out: Corn plant response rating): 0%
plant injury at 62 g/ha ([4]; 62 g ai/ha, preemergence, scale 0 (no effect) to 100 (complete control), read-out: Corn plant response rating): 20%
plant injury at 125 g/ha ([4]; 125 g ai/ha, preemergence, scale 0 (no effect) to 100 (complete control), read-out: Corn plant response rating): 35%
Corn plant response rating (crop injury, 0 = no effect, 100 = complete kill) at 31 g/ha ([4]; Preemergence, 31 g ai/ha, scale 0 to 100, 0 no effect, 100 complete control): 10%
pest or weed control at 16 g/ha ([5]; 16 g ai/ha, preemergence, scale 0 to 100 (0 no effect, 100 complete control), read-out: Morningglory plant response rating): 25%
pest or weed control at 62 g/ha ([5]; 62 g ai/ha, preemergence, scale 0 (no effect) to 100 (complete control), read-out: Morningglory plant response rating): 5%
pest or weed control at 125 g/ha ([5]; 125 g ai/ha, preemergence, scale 0 (no effect) to 100 (complete control), read-out: Morningglory plant response rating): 5%
pest or weed control at 31 g/ha ([5]; Preemergence, 31 g ai/ha, scale 0 to 100, 0 no effect, 100 complete control, read-out: Plant response rating, Morningglory): 0%
pest or weed control at 16 g/ha ([6]; 16 g ai/ha, preemergence, scale 0 to 100 (0 no effect, 100 complete control), read-out: Ragweed plant response rating): 10%
pest or weed control at 62 g/ha ([6]; 62 g ai/ha, preemergence, scale 0 (no effect) to 100 (complete control), read-out: Ragweed plant response rating): 40%
pest or weed control at 125 g/ha ([6]; 125 g ai/ha, preemergence, scale 0 (no effect) to 100 (complete control), read-out: Ragweed plant response rating): 30%
pest or weed control at 31 g/ha ([6]; Preemergence, 31 g ai/ha, scale 0 to 100, 0 no effect, 100 complete control, read-out: Plant response rating, Ragweed): 10%
plant injury at 16 g/ha ([7]; 16 g ai/ha, preemergence, scale 0 to 100 (0 no effect, 100 complete control), read-out: Soybean plant response rating): 0%
plant injury at 62 g/ha ([7]; 62 g ai/ha, preemergence, scale 0 (no effect) to 100 (complete control), read-out: Soybean plant response rating): 5%
plant injury at 125 g/ha ([7]; 125 g ai/ha, preemergence, scale 0 (no effect) to 100 (complete control), read-out: Soybean plant response rating): 55%
plant injury at 31 g/ha ([7]; Preemergence, 31 g ai/ha, scale 0 to 100, 0 no effect, 100 complete control, read-out: Plant response rating, Soybean): 0%
pest or weed control at 16 g/ha ([8]; 16 g ai/ha, preemergence, scale 0 to 100 (0 no effect, 100 complete control), read-out: Barnyardgrass plant response rating): 0%
pest or weed control at 62 g/ha ([8]; 62 g ai/ha, preemergence, scale 0 (no effect) to 100 (complete control), read-out: Barnyardgrass plant response rating): 10%
pest or weed control at 125 g/ha ([8]; 125 g ai/ha, preemergence, scale 0 (no effect) to 100 (complete control), read-out: Barnyardgrass plant response rating): 75%
pest or weed control at 31 g/ha ([8]; Preemergence, 31 g ai/ha, scale 0 to 100, 0 no effect, 100 complete control, read-out: Plant response rating, Barnyardgrass): 0%
plant injury at 16 g/ha ([9]; 16 g ai/ha, preemergence, scale 0 to 100 (0 no effect, 100 complete control), read-out: Oilseed Rape plant response rating): 20%
plant injury at 62 g/ha ([9]; 62 g ai/ha, preemergence, scale 0 (no effect) to 100 (complete control), read-out: Oilseed Rape plant response rating): 100%
plant injury at 125 g/ha ([9]; 125 g ai/ha, preemergence, scale 0 (no effect) to 100 (complete control), read-out: Oilseed Rape plant response rating): 100%
plant injury at 31 g/ha ([9]; Preemergence, 31 g ai/ha, scale 0 to 100, 0 no effect, 100 complete control, read-out: Plant response rating, Oilseed Rape): 85%
pest or weed control at 16 g/ha ([10]; 16 g ai/ha, preemergence, scale 0 to 100 (0 no effect, 100 complete control), read-out: Waterhemp plant response rating): 85%
pest or weed control at 62 g/ha ([10]; 62 g ai/ha, preemergence, scale 0 (no effect) to 100 (complete control), read-out: Waterhemp plant response rating): 100%
pest or weed control at 125 g/ha ([10]; 125 g ai/ha, preemergence, scale 0 (no effect) to 100 (complete control), read-out: Waterhemp plant response rating): 100%
pest or weed control at 31 g/ha ([10]; Preemergence, 31 g ai/ha, scale 0 to 100, 0 no effect, 100 complete control, read-out: Plant response rating, Waterhemp): 98%
pest or weed control at 16 g/ha ([11]; 16 g ai/ha, postemergence, 0 is no effect, 100 is complete control, read-out: Plant response rating (0 to 100), Blackgrass): 5%
pest or weed control at 125 g/ha ([11]; 125 g ai/ha, postemergence, visual rating, scale 0 to 100 (0 no effect, 100 complete control), read-out: Plant response rating, Blackgrass): 5%
pest or weed control at 31 g/ha ([11]; Postemergence, 31 g ai/ha, scale 0 to 100 (0 no effect, 100 complete control), 13 to 15 days, read-out: Plant response rating, Blackgrass): 5%
pest or weed control at 62 g/ha ([11]; Postemergence, 62 g ai/ha, scale 0 to 100 (0 no effect, 100 complete control), read-out: Plant response rating, Blackgrass): 10%
pest or weed control at 16 g/ha ([12]; 16 g ai/ha, postemergence, 0 is no effect, 100 is complete control, read-out: Plant response rating (0 to 100), Ryegrass, Italian): 0%
pest or weed control at 125 g/ha ([12]; 125 g ai/ha, postemergence, visual rating, scale 0 to 100 (0 no effect, 100 complete control), read-out: Plant response rating, Ryegrass, Italian): 5%
pest or weed control at 62 g/ha ([12]; Postemergence, 62 g ai/ha, scale 0 to 100 (0 no effect, 100 complete control), read-out: Plant response rating, Ryegrass, Italian): 5%
plant injury at 16 g/ha ([13]; 16 g ai/ha, postemergence, 0 is no effect, 100 is complete control, read-out: Plant response rating (0 to 100), Corn): 5%
Corn plant response rating (crop injury, 0 = no effect, 100 = complete kill) at 125 g/ha ([13]; 125 g ai/ha, postemergence, visual rating, scale 0 to 100 (0 no effect, 100 complete control)): 10%
Corn plant response rating (crop injury, 0 = no effect, 100 = complete kill) at 62 g/ha ([13]; Postemergence, 62 g ai/ha, scale 0 to 100 (0 no effect, 100 complete control)): 5%
pest or weed control at 16 g/ha ([14]; 16 g ai/ha, postemergence, 0 is no effect, 100 is complete control, read-out: Plant response rating (0 to 100), Lambsquarters): 10%
pest or weed control at 125 g/ha ([14]; 125 g ai/ha, postemergence, visual rating, scale 0 to 100 (0 no effect, 100 complete control), read-out: Plant response rating, Lambsquarters): 50%
pest or weed control at 62 g/ha ([14]; Postemergence, 62 g ai/ha, scale 0 to 100 (0 no effect, 100 complete control), read-out: Plant response rating, Lambsquarters): 60%
pest or weed control at 16 g/ha ([15]; 16 g ai/ha, postemergence, 0 is no effect, 100 is complete control, read-out: Plant response rating (0 to 100), Pigweed): 25%
pest or weed control at 125 g/ha ([15]; 125 g ai/ha, postemergence, visual rating, scale 0 to 100 (0 no effect, 100 complete control), read-out: Plant response rating, Pigweed): 80%
pest or weed control at 62 g/ha ([15]; Postemergence, 62 g ai/ha, scale 0 to 100 (0 no effect, 100 complete control), read-out: Plant response rating, Pigweed): 75%
pest or weed control at 16 g/ha ([16]; 16 g ai/ha, postemergence, 0 is no effect, 100 is complete control, read-out: Plant response rating (0 to 100), Barnyardgrass): 0%
pest or weed control at 125 g/ha ([16]; 125 g ai/ha, postemergence, visual rating, scale 0 to 100 (0 no effect, 100 complete control), read-out: Plant response rating, Barnyardgrass): 5%
pest or weed control at 31 g/ha ([16]; Postemergence, 31 g ai/ha, scale 0 to 100 (0 no effect, 100 complete control), 13 to 15 days, read-out: Plant response rating, Barnyardgrass): 0%
pest or weed control at 62 g/ha ([16]; Postemergence, 62 g ai/ha, scale 0 to 100 (0 no effect, 100 complete control), read-out: Plant response rating, Barnyardgrass): 5%
pest or weed control at 16 g/ha ([17]; 16 g ai/ha, postemergence, 0 is no effect, 100 is complete control, read-out: Plant response rating (0 to 100), Waterhemp): 45%
pest or weed control at 125 g/ha ([17]; 125 g ai/ha, postemergence, visual rating, scale 0 to 100 (0 no effect, 100 complete control), read-out: Plant response rating, Waterhemp): 75%
pest or weed control at 62 g/ha ([17]; Postemergence, 62 g ai/ha, scale 0 to 100 (0 no effect, 100 complete control), read-out: Plant response rating, Waterhemp): 65%
